Our source for the IC50 values is patent publication US5631222A, “Endothelin-antagonizing peptide” (Kyowa Hakko Kogyo Co., Ltd., priority 1993, dated 1997).

SMILES strings stand for the structures. Non-standard residues stand in square brackets, D forms with d. Residues, ends and D or L forms follow the SMILES beside them. NMeI = CC[C@H](C)[C@H](NC)C(=O)O; 2Thi = N[C@@H](Cc1cccs1)C(=O)O; NMeL = CN[C@@H](CC(C)C)C(=O)O; Phg = N[C@H](C(=O)O)c1ccccc1; Nle = CCCC[C@H](N)C(=O)O; Nva = CCC[C@H](N)C(=O)O; Abu = CC[C@H](N)C(=O)O

The test addresses T1, endothelin receptor (Bos taurus, UniProt P28088).
T1 construct: the suspension was used as a membrane fraction liquid; from tissue; host or cells: bovine cerebellum membrane fraction
T1 sequence (P28088 27-441): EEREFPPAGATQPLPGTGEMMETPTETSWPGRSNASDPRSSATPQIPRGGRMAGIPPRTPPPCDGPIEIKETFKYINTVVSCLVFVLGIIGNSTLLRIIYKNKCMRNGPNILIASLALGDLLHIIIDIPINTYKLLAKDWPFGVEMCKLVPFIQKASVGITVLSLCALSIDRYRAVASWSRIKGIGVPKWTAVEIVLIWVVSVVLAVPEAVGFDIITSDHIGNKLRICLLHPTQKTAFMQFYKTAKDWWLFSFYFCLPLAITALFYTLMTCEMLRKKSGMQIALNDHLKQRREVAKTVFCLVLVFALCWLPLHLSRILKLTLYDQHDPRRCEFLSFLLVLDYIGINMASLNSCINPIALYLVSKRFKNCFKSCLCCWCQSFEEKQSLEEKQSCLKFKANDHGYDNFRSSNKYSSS
Kind of test: Endothelin receptor-antagonizing activity: inhibition of 125I-endothelin-1 binding to bovine cerebellum membrane fraction. As to conditions: 125I-Endothelin-1, bovine cerebellum membrane fraction, 25° C. for 2 hours; read-out: IC50: Concentration causing 50% inhibition of endothelin1 binding. The procedure: Bovine cerebellum tissue was homogenized at 4° C. by using POLYTRON (type PT10/35, manufactured by Kinematic Gmbh Co.) in a buffer solution A (1 mM NaHCO3, 5 mM ethylenediaminetetraacetic acid, 5 μg/ml leupeptin, 5 μg/ml pepstatin A, 40 μM phenylmethylsulfonyl fluoride, pH 8.3).
The obtained suspension was centrifuged for 10 minutes at 8,000 G and 4° C., and the resulting supernatant was centrifuged for 60 minutes at 40,000 G and 4° C. to obtain pellets. The obtained pellets were suspended in a buffer solution A and again centrifuged for 60 minutes at 40,000 G and 4° C. The resulting solid substance was prepared as a suspension containing 2 mg/ml of protein, and the suspension was used as a membrane fraction liquid. […] These mixtures were incubated at 25° C. for 2 hours, and then filtered with a GF/B glass filter (produced by Whatman Co.). […] The inhibition ratio against endothelin receptor binding activity was calculated according to the following equation:
Inhibition ratio (%)=(C-A/C-B)×100
B: Radioactivity in the presence of unlabelled endothelin-1
C: Radioactivity in the absence of both of the compound shown in Table 2 and unlabelled endothelin-1
With `CC[C@H](NC(=O)[C@@H](NC(=O)[C@H](CC(C)C)NC(=O)[C@H](Cc1c[nH]cn1)NC(=O)[C@H](C)NC(=O)[C@H](Cc1ccccc1)NC(=O)[C@H](Cc1ccc(O)cc1)NC(=O)[C@@H](NC(=O)[C@H](Cc1c[nH]c2ccccc12)NC(=O)[C@H](CC(=O)O)NC(=O)[C@@H]1CCCN1C(=O)[C@H](C)NC(=O)[C@@H](NC(=O)CNC(=O)[C@H](Cc1c[nH]cn1)NC(=O)[C@H](Cc1c[nH]c2ccccc12)NC(=O)[C@H](CC(N)=O)NC(=O)CN)[C@@H](C)O)C(C)C)[C@@H](C)O)C(=O)N[C@H](C(=O)N[C@@H](Cc1c[nH]c2ccccc12)C(=O)O)[C@@H](C)CC` [Compound 15, HGlyAsnTrpHisGlyThrAlaProAspTrpValTyrPheAlaHisLeuThrAbuIleTrpOH] (H-GNWHGTAPDWVYFAHLT[Abu]IW-OH), the IC50 stood at 0.11 nM.

Take `CC[C@H](C)[C@H](NC(=O)[C@H](CC(C)C)N(C)C(=O)[C@@H](NC(=O)[C@H](CC(C)C)NC(=O)[C@H](Cc1c[nH]cn1)NC(=O)[C@H](C)NC(=O)[C@H](Cc1ccccc1)NC(=O)[C@H](Cc1ccc(O)cc1)NC(=O)[C@@H](NC(=O)[C@H](Cc1c[nH]c2ccccc12)NC(=O)[C@H](CC(=O)O)NC(=O)[C@@H]1CCCN1C(=O)[C@H](C)NC(=O)[C@@H](NC(=O)CNC(=O)[C@H](Cc1c[nH]cn1)NC(=O)[C@H](Cc1c[nH]c2ccccc12)NC(=O)[C@H](CC(N)=O)NC(=O)CN)[C@@H](C)O)C(C)C)[C@@H](C)O)C(=O)N[C@@H](Cc1c[nH]c2ccccc12)C(=O)O` [Compound 23, HGlyAsnTrpHisGlyThrAlaProAspTrpValTyrPheAlaHisLeuThrMeLeuIleTrpOH] (H-GNWHGTAPDWVYFAHLT[NMeL]IW-OH): the IC50 came to 54 nM.

As for `CC[C@H](C)[C@H](NC(=O)[C@H]([C@@H](C)CC)N(C)C(=O)[C@@H](NC(=O)[C@H](CC(C)C)NC(=O)[C@H](Cc1c[nH]cn1)NC(=O)[C@H](C)NC(=O)[C@H](Cc1ccccc1)NC(=O)[C@H](Cc1ccc(O)cc1)NC(=O)[C@@H](NC(=O)[C@H](Cc1c[nH]c2ccccc12)NC(=O)[C@H](CC(=O)O)NC(=O)[C@@H]1CCCN1C(=O)[C@H](C)NC(=O)[C@@H](NC(=O)CNC(=O)[C@H](Cc1c[nH]cn1)NC(=O)[C@H](Cc1c[nH]c2ccccc12)NC(=O)[C@H](CC(N)=O)NC(=O)CN)[C@@H](C)O)C(C)C)[C@@H](C)O)C(=O)N[C@@H](Cc1c[nH]c2ccccc12)C(=O)O` [Compound 24, HGlyAsnTrpHisGlyThrAlaProAspTrpValTyrPheAlaHisLeuThrMeIleIleTrpOH] (H-GNWHGTAPDWVYFAHLT[NMeI]IW-OH), the IC50 worked out at 50 nM.

For `CC[C@H](C)[C@H](NC(=O)[C@@H](NC(=O)[C@@H](NC(=O)[C@H](CC(C)C)NC(=O)[C@H](Cc1c[nH]cn1)NC(=O)[C@H](C)NC(=O)[C@H](Cc1ccccc1)NC(=O)[C@H](Cc1ccc(O)cc1)NC(=O)[C@@H](NC(=O)[C@H](Cc1c[nH]c2ccccc12)NC(=O)[C@H](CC(=O)O)NC(=O)[C@@H]1CCCN1C(=O)[C@H](C)NC(=O)[C@@H](NC(=O)CNC(=O)[C@H](Cc1c[nH]cn1)NC(=O)[C@H](Cc1c[nH]c2ccccc12)NC(=O)[C@H](CC(N)=O)NC(=O)CN)[C@@H](C)O)C(C)C)[C@@H](C)O)c1ccccc1)C(=O)N[C@@H](Cc1c[nH]c2ccccc12)C(=O)O` [Compound 25, HGlyAsnTrpHisGlyThrAlaProAspTrpValTyrPheAlaHisLeuThrPhgIleTrpOH] (H-GNWHGTAPDWVYFAHLT[Phg]IW-OH), the IC50 worked out at 0.58 nM.

Regarding `CCCC[C@H](NC(=O)[C@@H](NC(=O)[C@H](CC(C)C)NC(=O)[C@H](Cc1c[nH]cn1)NC(=O)[C@H](C)NC(=O)[C@H](Cc1ccccc1)NC(=O)[C@H](Cc1ccc(O)cc1)NC(=O)[C@@H](NC(=O)[C@H](Cc1c[nH]c2ccccc12)NC(=O)[C@H](CC(=O)O)NC(=O)[C@@H]1CCCN1C(=O)[C@H](C)NC(=O)[C@@H](NC(=O)CNC(=O)[C@H](Cc1c[nH]cn1)NC(=O)[C@H](Cc1c[nH]c2ccccc12)NC(=O)[C@H](CC(N)=O)NC(=O)CN)[C@@H](C)O)C(C)C)[C@@H](C)O)C(=O)N[C@H](C(=O)N[C@@H](Cc1c[nH]c2ccccc12)C(=O)O)[C@@H](C)CC` [Compound 26, HGlyAsnTrpHisGlyThrAlaProAspTrpValTyrPheAlaHisLeuThrNleIleTrpOH] (H-GNWHGTAPDWVYFAHLT[Nle]IW-OH), the IC50 is 0.63 nM.

Consider `CC[C@H](C)[C@H](NC(=O)[C@H](Cc1cccs1)NC(=O)[C@@H](NC(=O)[C@H](CC(C)C)NC(=O)[C@H](Cc1c[nH]cn1)NC(=O)[C@@H](C)NC(=O)[C@H](Cc1ccccc1)NC(=O)[C@H](Cc1ccc(O)cc1)NC(=O)[C@@H](NC(=O)[C@H](Cc1c[nH]c2ccccc12)NC(=O)[C@H](CC(=O)O)NC(=O)[C@@H]1CCCN1C(=O)[C@H](C)NC(=O)[C@@H](NC(=O)CNC(=O)[C@H](Cc1c[nH]cn1)NC(=O)[C@H](Cc1c[nH]c2ccccc12)NC(=O)[C@H](CC(N)=O)NC(=O)CN)[C@@H](C)O)C(C)C)[C@@H](C)O)C(=O)N[C@@H](Cc1c[nH]c2ccccc12)C(=O)O` [Compound 27, HGlyAsnTrpHisGlyThrAlaProAspTrpValTyrPheD-AlaHisLeuThrThiIleTrpOH] (H-GNWHGTAPDWVYF[dA]HLT[2Thi]IW-OH), for which the IC50 amounted to 4.9 nM.

On to `CC[C@H](C)[C@H](NC(=O)[C@H](Cc1cccs1)NC(=O)[C@@H](NC(=O)[C@H](CC(C)C)NC(=O)[C@@H](Cc1c[nH]c2ccccc12)NC(=O)[C@H](C)NC(=O)[C@H](Cc1ccccc1)NC(=O)[C@H](Cc1ccc(O)cc1)NC(=O)[C@@H](NC(=O)[C@H](Cc1c[nH]c2ccccc12)NC(=O)[C@H](CC(=O)O)NC(=O)[C@@H]1CCCN1C(=O)[C@H](C)NC(=O)[C@@H](NC(=O)CNC(=O)[C@H](Cc1c[nH]cn1)NC(=O)[C@H](Cc1c[nH]c2ccccc12)NC(=O)[C@H](CC(N)=O)NC(=O)CN)[C@@H](C)O)C(C)C)[C@@H](C)O)C(=O)N[C@@H](Cc1c[nH]c2ccccc12)C(=O)O` [Compound 28, HGlyAsnTrpHisGlyThrAlaProAspTrpValTyrPheAlaD-TrpLeuThrThiIleTrpOH] (H-GNWHGTAPDWVYFA[dW]LT[2Thi]IW-OH), for which the IC50 was determined as 89 nM.

On to `CCC[C@H](NC(=O)[C@H](Cc1c[nH]cn1)NC(=O)[C@H](C)NC(=O)[C@H](Cc1ccccc1)NC(=O)[C@H](Cc1ccc(O)cc1)NC(=O)[C@@H](NC(=O)[C@H](Cc1c[nH]c2ccccc12)NC(=O)[C@H](CC(=O)O)NC(=O)[C@@H]1CCCN1C(=O)[C@H](C)NC(=O)[C@@H](NC(=O)CNC(=O)[C@H](Cc1c[nH]cn1)NC(=O)[C@H](Cc1c[nH]c2ccccc12)NC(=O)[C@H](CC(N)=O)NC(=O)CN)[C@@H](C)O)C(C)C)C(=O)N[C@H](C(=O)N[C@@H](Cc1cccs1)C(=O)N[C@H](C(=O)N[C@@H](Cc1c[nH]c2ccccc12)C(=O)O)[C@@H](C)CC)[C@@H](C)O` [Compound 29, HGlyAsnTrpHisGlyThrAlaProAspTrpValTyrPheAlaHisNvaThrThiIleTrpOH] (H-GNWHGTAPDWVYFAH[Nva]T[2Thi]IW-OH), for which the IC50 is 0.37 nM.

With `CC[C@H](C)[C@H](NC(=O)[C@H](Cc1cccs1)NC(=O)CNC(=O)[C@H](CC(C)C)NC(=O)[C@H](Cc1c[nH]cn1)NC(=O)[C@H](C)NC(=O)[C@H](Cc1ccccc1)NC(=O)[C@H](Cc1ccc(O)cc1)NC(=O)[C@@H](NC(=O)[C@H](Cc1c[nH]c2ccccc12)NC(=O)[C@H](CC(=O)O)NC(=O)[C@@H]1CCCN1C(=O)[C@H](C)NC(=O)[C@@H](NC(=O)CNC(=O)[C@H](Cc1c[nH]cn1)NC(=O)[C@H](Cc1c[nH]c2ccccc12)NC(=O)[C@H](CC(N)=O)NC(=O)CN)[C@@H](C)O)C(C)C)C(=O)N[C@@H](Cc1c[nH]c2ccccc12)C(=O)O` [Compound 30, HGlyAsnTrpHisGlyThrAlaProAspTrpValTyrPheAlaHisLeuGlyThiIleTrpOH] (H-GNWHGTAPDWVYFAHLG[2Thi]IW-OH), the IC50 turned out to be 170 nM.

On to `CC[C@@H](C)[C@@H](NC(=O)[C@H](Cc1cccs1)NC(=O)[C@@H](NC(=O)[C@H](CC(C)C)NC(=O)[C@H](Cc1c[nH]cn1)NC(=O)[C@H](C)NC(=O)[C@H](Cc1ccccc1)NC(=O)[C@H](Cc1ccc(O)cc1)NC(=O)[C@@H](NC(=O)[C@H](Cc1c[nH]c2ccccc12)NC(=O)[C@H](CC(=O)O)NC(=O)[C@@H]1CCCN1C(=O)[C@H](C)NC(=O)[C@@H](NC(=O)CNC(=O)[C@H](Cc1c[nH]cn1)NC(=O)[C@H](Cc1c[nH]c2ccccc12)NC(=O)[C@H](CC(N)=O)NC(=O)CN)[C@@H](C)O)C(C)C)[C@@H](C)O)C(=O)N[C@@H](Cc1c[nH]c2ccccc12)C(=O)O` [Compound 31, HGlyAsnTrpHisGlyThrAlaProAspTrpValTyrPheAlaHisLeuThrThiD-IleTrpOH] (H-GNWHGTAPDWVYFAHLT[2Thi][dI]W-OH), for which the IC50 was determined as 210 nM.
